What was measured:
IP L1210 [1] = assay: Activity against IP-implanted L1210 leukemia sensitive to cisplatin, 60 day test (Table 4); assay type: in vivo, Female CD2Fl mice
Protocol: (§1) Biological properties of the compounds of the present invention were determined following the protocol described in Cancer Chemotherapy Reports, Vol. 3, No. 3, 1972 which report is incorporated herein by reference.
(§2) Other known mechanisms of resistance for other classes of agents, such as gene amplification or target enzyme change or amplication, also need to be explored. The experiments summarized in Table 3 were conducted at the same time against both sublines using the same drug preparations. […] These experiments were repeated in a second laboratory as documented in Table 4. However, in these experiments the animals were held for 60 rather than 30 days to evaluate whether or not long-term survivors are produced after drug treatment in a more challenging setting.
(§3) This experiment (A8-00005 3LE31) was conducted at the Southern Research Institute, Birmingham, Ala. under the supervision of Dr. Daniel Griswold. The protocols were the same as those published previously (Geran et al., Cancer Chemotherapy Reports 3: No. 2, 1972 [Attachment 11]). 10^5 cells were implanted intraperitoneally in CD2Fl male mice on Day 0. Drug treatments were given intraperitoneally as single injections at the doses indicated on Days 1, 5 and 9 after tumor implantation. The diluent was saline except for NSC-271674 where 5% sodium bicarbonate was used. All drugs were prepared fresh on the day of injection, and all were administered in solution. Median survival times for both control and drug-treated mice were determined and expressed as a percentage (% T/C). Body weights were determined on Day 5 and expressed as a weight difference (body weight of the drug-treated animals minus that of the control animals in grams) (T-C). The diluent control animals lived a median of 8.4 days and gained 1.9 grams by Day 5 in this experiment. All animals, including Day 30 survivors, were used in the calculation of median survival times. The log10 change in tumor burden refers to the net log change in viable tumor cell population at the end of therapy (Rx) as compared to the start of therapy; e.g., a […] means that there was a […] and a 3 log change means there was a 1000-fold increase in tumor burden at the end of therapy. The tumor burden at the start of therapy was about 6.1×10^5 cells in this experiment.
(§4) These experiments (23-00081 3LE31 and 23-00003 3DP3l) were conducted concurrently at the Mason Research Institute, Worcester, MA under the supervision of Dr. William Cobb. See Table 4 for experimental details. The diluent control animals bearing L1210 leukemia lived a median of 8.3 days and gained 1.6 grams by Day 5. […] Female CD2Fl mice were used for these experiments.

[2] = tested on: IP-Implanted L1210 Leukemia; assay: Dose-response against IP-implanted L1210 leukemia, IP treatment Days 1, 5 and 9, 30-day test (Table 2); assay type: in vivo, CD2Fl male mice
Protocol: as §1, §3

IP L1210 [3] = assay: Activity against IP-implanted L1210 leukemia sensitive to cisplatin, 30 day test (Table 3); assay type: in vivo, Female CD2Fl mice
Protocol: as §1, §2, §3
These experiments (A8-00008 3LE31 and A8-00001 3DP31) were conducted concurrently at the Southern Research Institute, Birmingham, Ala. under the supervision of Dr. Daniel Griswold. See Table 4 for experimental details. The diluent control animals bearing L1210 leukemia lived a median of 8.6 days and gained 1.3 grams by Day 5. […] Female CD2Fl mice were used for these experiments.

IP L1210/Cisplatin = assay: Activity against IP-implanted L1210/Cisplatin leukemia resistant to cisplatin, 60 day test (Table 4); assay type: in vivo, Female CD2Fl mice
Protocol: as §1
Other known mechanisms of resistance for other classes of agents, such as gene amplification or target enzyme change or amplication, also need to be explored. The experiments summarized in Table 3 were conducted at the same time against both sublines using the same drug preparations. […] These experiments were repeated in a second laboratory as documented in Table 4. However, in these experiments the animals were held for 60 rather than 30 days to evaluate whether or not long-term survivors are produced after drug treatment in a more challenging setting. […]
as §4

N[C@@H]1CCCC[C@H]1N.O=C([O-])c1ccc(C(=O)[O-])c(C(=O)[O-])c1.[H+].[Pt+2] [Carboxyphthalato Platinum, carboxyphthalatocyclohexanediamine platinum (II), reference compound]
60 Day Survivors/Total (IP L1210 [1]; 3.13 mg/kg/dose): 2/10
Body Weight Difference (IP L1210 [1]; 3.13 mg/kg/dose): -2.3 Grams
Median % T/C (IP L1210 [1]; 3.13 mg/kg/dose): 280%
60 Day Survivors/Total (IP L1210 [1]; 6.25 mg/kg/dose): 2/10
Body Weight Difference (IP L1210 [1]; 6.25 mg/kg/dose): -3.5 Grams
Median % T/C (IP L1210 [1]; 6.25 mg/kg/dose): 313%
60 Day Survivors/Total (IP L1210 [1]; 12.5 mg/kg/dose): 0/10
Body Weight Difference (IP L1210 [1]; 12.5 mg/kg/dose): -6.0 Grams
Median % T/C (IP L1210 [1]; 12.5 mg/kg/dose): Toxic
60 Day Survivors/Total (IP L1210 [1]; 25 mg/kg/dose): 0/10
Median % T/C (IP L1210 [1]; 25 mg/kg/dose): Toxic
60 Day Survivors/Total (IP L1210 [1]; 50 mg/kg/dose): 0/10
Median % T/C (IP L1210 [1]; 50 mg/kg/dose): Toxic
30-Day Survivors/Total ([2]; 3.13 mg/kg/dose IP): 0/6
Approx. Log10 Change in Tumor Burden at End of Rx ([2]; 3.13 mg/kg/dose IP): ~2.5 log10
Body Weight Difference ([2]; 3.13 mg/kg/dose IP): -0.5 Grams
Median % T/C ([2]; 3.13 mg/kg/dose IP): 146%
30-Day Survivors/Total ([2]; 6.25 mg/kg/dose IP): 0/6
Approx. Log10 Change in Tumor Burden at End of Rx ([2]; 6.25 mg/kg/dose IP): ~2.3 log10
Body Weight Difference ([2]; 6.25 mg/kg/dose IP): -0.8 Grams
Median % T/C ([2]; 6.25 mg/kg/dose IP): 154%
30-Day Survivors/Total ([2]; 12.5 mg/kg/dose IP): 2/6
Approx. Log10 Change in Tumor Burden at End of Rx ([2]; 12.5 mg/kg/dose IP): -5.7 log10
Body Weight Difference ([2]; 12.5 mg/kg/dose IP): -2.1 Grams
Median % T/C ([2]; 12.5 mg/kg/dose IP): 309%
30-Day Survivors/Total ([2]; 25 mg/kg/dose IP): 4/6
Approx. Log10 Change in Tumor Burden at End of Rx ([2]; 25 mg/kg/dose IP): -5.7 log10
Body Weight Difference ([2]; 25 mg/kg/dose IP): -1.5 Grams
Median % T/C ([2]; 25 mg/kg/dose IP): 357%
30-Day Survivors/Total ([2]; 50 mg/kg/dose IP): 2/6
Approx. Log10 Change in Tumor Burden at End of Rx ([2]; 50 mg/kg/dose IP): -5.7 log10
Body Weight Difference ([2]; 50 mg/kg/dose IP): -5.0 Grams
Median % T/C ([2]; 50 mg/kg/dose IP): 345%
Body Weight Difference ([2]; 50 mg/kg/dose IP, listed as carboxyphthalato cyclohexanediamine platinum (II)): more than -4 Grams
30 Day Survivors/Total (IP L1210 [3]; 3.13 mg/kg/dose): 1/6
Approx. Log10 Change in Tumor Burden at End of RX (IP L1210 [3]; 3.13 mg/kg/dose): ~1.4 log10
Median % T/C (IP L1210 [3]; 3.13 mg/kg/dose): 174%
30 Day Survivors/Total (IP L1210 [3]; 6.25 mg/kg/dose): 5/6
Approx. Log10 Change in Tumor Burden at End of RX (IP L1210 [3]; 6.25 mg/kg/dose): ~-5.9 log10
Median % T/C (IP L1210 [3]; 6.25 mg/kg/dose): 348%
30 Day Survivors/Total (IP L1210 [3]; 12.5 mg/kg/dose): 6/6
Approx. Log10 Change in Tumor Burden at End of RX (IP L1210 [3]; 12.5 mg/kg/dose): ~-5.9 log10
Median % T/C (IP L1210 [3]; 12.5 mg/kg/dose): 348%
30 Day Survivors/Total (IP L1210 [3]; 25 mg/kg/dose): 0/6
Median % T/C (IP L1210 [3]; 25 mg/kg/dose): 73%
30 Day Survivors/Total (IP L1210 [3]; 50 mg/kg/dose): 0/6
Median % T/C (IP L1210 [3]; 50 mg/kg/dose): 50%
60 Day Survivors/Total (IP L1210/Cisplatin; 3.13 mg/kg/dose): 6/10
Body Weight Difference (IP L1210/Cisplatin; 3.13 mg/kg/dose): -1.2 Grams
Median % T/C (IP L1210/Cisplatin; 3.13 mg/kg/dose): 645%
60 Day Survivors/Total (IP L1210/Cisplatin; 6.25 mg/kg/dose): 2/10
Body Weight Difference (IP L1210/Cisplatin; 6.25 mg/kg/dose): -2.9 Grams
Median % T/C (IP L1210/Cisplatin; 6.25 mg/kg/dose): 236%
60 Day Survivors/Total (IP L1210/Cisplatin; 12.5 mg/kg/dose): 0/10
Body Weight Difference (IP L1210/Cisplatin; 12.5 mg/kg/dose): -5.5 Grams
Median % T/C (IP L1210/Cisplatin; 12.5 mg/kg/dose): Toxic
60 Day Survivors/Total (IP L1210/Cisplatin; 25 mg/kg/dose): 0/10
Body Weight Difference (IP L1210/Cisplatin; 25 mg/kg/dose): -3.7 Grams
Median % T/C (IP L1210/Cisplatin; 25 mg/kg/dose): Toxic
60 Day Survivors/Total (IP L1210/Cisplatin; 50 mg/kg/dose): 0/10
Median % T/C (IP L1210/Cisplatin; 50 mg/kg/dose): Toxic

— US4599352A, “Antineoplastic platinum (IV) complexes and compositions” (priority 1984, dated 1986)
